In ChEMBL document CHEMBL1151343, “Antitumor plants. X. Constituents of Nectandra rigida” (1980) one finds EC50 data, which are given here for one molecule.

This assay deals with KB. Kind of assay: Cytotoxicity against human KB cells. Type of assay: functional. Conditions: read-out: ED50 (the source's name).

Molecules are shown by their SMILES. Converted amounts (≈) assume the structure as drawn.

Take `C/C=C/c1cc(OC)c2c(c1)[C@H](C)[C@@H](c1ccc(O)c(OC)c1)O2` [LICARIN A]: the EC50 came to 7 µg/mL (≈ 21.4 µM).
